Entries after “also recorded” stand apart in the source; their conditions may differ.
What follows are compounds tested against T1, human Cav3.2 channels (Homo sapiens, UniProt O95180) (assay: T-type calcium blocking action: intracellular calcium concentration in cells steadily expressing human Cav3.2 channels). Details: HEK293 cells steadily expressing human Cav3.2 channels; Fluo-4 AM fluorescence increase after KCl stimulus.
T1 construct: expressed in transfected cells
Assay type: cell-based
Text: (1) Construction of Cells Steadily Expressing Human Cav3.2 Channels
A sequence obtained by adding HindIII site and a kozak sequence (GCCACC) to the 5′-side of human Cav3.2 channel ORF (Open Reading Frame) gene and adding a KpnI site to the 3′-side of the gene, was incorporated into pcDNA3.1 (+) (Thermo Fisher Scientific, #V790-20), and the plasmid was introduced into HEK293 cells (ATCC No. CRL-1573) according to the protocol of FuGENE (registered trademark) HD Transfection Reagent (Promega, #E2311).
(2) Method for Measuring Intracellular Calcium Concentration
The cell strain steadily expressing human Cav3.2 channels as produced by the testing method (1) was seeded on a 96-well plate using DMEM including 10% FBS, and the cells were cultured for 48 hours under the conditions of 37° C. and 5% CO2. Subsequently, the medium was removed, and each of the wells were washed with buffer A and treated with 80 μL of a fluorescent dye solution including a mixed liquid of 22 μg of a fluorescent calcium indicator, Fluo-4 AM (Dojindo Molecular Technologies, Inc., #F311), 20 μL of dimethyl sulfoxide (DMSO), 1 μL of 10% Pluronic F-127 (Thermo Fisher Scientific, #P6866), and 4 mL of buffer A. After the cells were left to stand for 45 minutes at room temperature under light-shielded conditions, and then the cells were washed with buffer B. DMSO as a negative control and various test compound solutions each obtained by dissolving a test compound dissolved in DMSO, in buffer B so as to obtain a 10-fold concentration of the evaluation concentration, were introduced into respective wells. The final concentration of DMSO was adjusted to 0.1%. The cells were left to stand for another 15 minutes at room temperature under light-shielded conditions, and measurement was made using a microplate reader, EnVision (PerkinElmer Inc.) using the following method. First, the background fluorescence of each well was measured, subsequently an ionophore was introduced into each well, and the baseline fluorescence was measured. Subsequently, buffer B having 83.8 mM KCl added thereto was introduced, and an increase in fluorescence caused by calcium influx generated by the stimulus was measured for 10 seconds. The percentage inhibition was calculated from the maximum fluorescence increase value from the baseline, the logarithmic value of the test compound concentration and the inhibitory activity are plotted, and thereby the IC50 value was calculated. The measurement was carried out by observing the fluorescence at 510 nm that was emitted when the cells were irradiated with excitation light at 485 nm.
Buffer A: 140 mM NaCl, 5 mM KCl, 1 mM MgCl2, 0.5 mM CaCl2, 10 mM Glucose, 10 mM HEPES, pH 7.3
Buffer B: 137.9 mM Choline-Cl, 4.1 mM KCl, 1 mM MgCl2, 0.5 mM CaCl2, 10 mM Glucose, 10 mM HEPES, pH 7.3, equilibrium potential of potassium: −92 mV

T1 sequence (O95180 whole entry): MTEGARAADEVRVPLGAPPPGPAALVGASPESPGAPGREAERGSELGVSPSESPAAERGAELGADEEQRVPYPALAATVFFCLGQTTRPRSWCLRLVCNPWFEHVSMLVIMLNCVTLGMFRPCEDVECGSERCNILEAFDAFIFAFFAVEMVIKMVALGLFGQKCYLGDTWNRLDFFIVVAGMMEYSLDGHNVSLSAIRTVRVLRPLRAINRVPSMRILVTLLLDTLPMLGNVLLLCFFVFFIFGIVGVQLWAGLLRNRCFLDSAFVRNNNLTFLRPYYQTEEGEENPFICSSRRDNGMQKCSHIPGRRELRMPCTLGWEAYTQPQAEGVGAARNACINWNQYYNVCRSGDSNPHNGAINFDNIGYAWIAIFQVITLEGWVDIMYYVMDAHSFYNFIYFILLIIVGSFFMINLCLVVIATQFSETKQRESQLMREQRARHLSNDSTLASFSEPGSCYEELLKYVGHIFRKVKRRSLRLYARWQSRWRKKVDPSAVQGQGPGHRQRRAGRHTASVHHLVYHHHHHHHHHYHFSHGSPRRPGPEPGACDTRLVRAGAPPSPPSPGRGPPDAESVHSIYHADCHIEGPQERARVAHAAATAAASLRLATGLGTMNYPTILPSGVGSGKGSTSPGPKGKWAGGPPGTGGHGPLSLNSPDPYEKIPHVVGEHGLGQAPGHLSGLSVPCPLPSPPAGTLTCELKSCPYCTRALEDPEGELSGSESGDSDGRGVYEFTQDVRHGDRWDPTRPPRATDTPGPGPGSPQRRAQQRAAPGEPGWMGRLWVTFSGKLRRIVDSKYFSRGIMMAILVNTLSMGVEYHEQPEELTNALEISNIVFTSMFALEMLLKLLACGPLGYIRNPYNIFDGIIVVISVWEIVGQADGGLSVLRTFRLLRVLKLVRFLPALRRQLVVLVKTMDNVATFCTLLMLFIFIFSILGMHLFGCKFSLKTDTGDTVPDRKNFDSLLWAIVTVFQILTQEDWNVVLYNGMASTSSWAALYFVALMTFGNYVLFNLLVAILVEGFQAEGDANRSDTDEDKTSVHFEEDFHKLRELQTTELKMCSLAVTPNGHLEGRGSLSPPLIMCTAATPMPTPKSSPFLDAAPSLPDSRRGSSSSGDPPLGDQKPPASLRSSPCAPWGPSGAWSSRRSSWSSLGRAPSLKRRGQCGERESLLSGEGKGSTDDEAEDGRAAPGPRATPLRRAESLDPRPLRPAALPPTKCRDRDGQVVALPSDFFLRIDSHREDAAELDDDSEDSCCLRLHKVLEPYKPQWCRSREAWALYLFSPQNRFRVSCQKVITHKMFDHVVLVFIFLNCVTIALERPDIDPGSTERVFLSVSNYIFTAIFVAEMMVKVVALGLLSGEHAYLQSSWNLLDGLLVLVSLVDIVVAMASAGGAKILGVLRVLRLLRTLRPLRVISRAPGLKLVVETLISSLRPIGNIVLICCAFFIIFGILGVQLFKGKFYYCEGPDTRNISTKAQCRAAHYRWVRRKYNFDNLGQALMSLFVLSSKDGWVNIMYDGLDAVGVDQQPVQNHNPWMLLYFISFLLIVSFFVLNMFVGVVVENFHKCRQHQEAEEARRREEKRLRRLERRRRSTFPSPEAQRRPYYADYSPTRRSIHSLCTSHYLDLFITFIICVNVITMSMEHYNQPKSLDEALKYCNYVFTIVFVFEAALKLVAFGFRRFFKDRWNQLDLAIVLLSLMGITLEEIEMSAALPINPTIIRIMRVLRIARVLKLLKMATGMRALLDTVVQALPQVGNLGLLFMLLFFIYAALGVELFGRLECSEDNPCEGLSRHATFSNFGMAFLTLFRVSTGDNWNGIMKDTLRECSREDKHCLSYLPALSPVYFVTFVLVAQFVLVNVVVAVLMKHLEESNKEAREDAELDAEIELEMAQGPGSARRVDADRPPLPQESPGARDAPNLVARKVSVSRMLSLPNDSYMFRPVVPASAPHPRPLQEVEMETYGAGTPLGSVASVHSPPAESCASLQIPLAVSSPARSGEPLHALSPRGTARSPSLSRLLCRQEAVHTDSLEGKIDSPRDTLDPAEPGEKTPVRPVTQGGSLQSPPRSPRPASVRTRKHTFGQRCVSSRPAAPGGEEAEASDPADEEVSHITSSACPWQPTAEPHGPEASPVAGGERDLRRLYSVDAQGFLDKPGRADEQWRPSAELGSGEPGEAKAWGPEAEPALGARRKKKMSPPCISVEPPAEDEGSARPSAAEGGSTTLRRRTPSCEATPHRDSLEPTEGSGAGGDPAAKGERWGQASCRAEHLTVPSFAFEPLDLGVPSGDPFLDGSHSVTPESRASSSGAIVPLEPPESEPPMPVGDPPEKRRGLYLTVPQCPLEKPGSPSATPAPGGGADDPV

SMILES	IC50 [nM]
N#Cc1ccc2[nH]c(C3CC3C(=O)N[C@@H]3CCN(c4ccc(C(F)(F)F)nc4)C3)nc2c1 (single isomer, unassigned) [Example 61A]	1100
N#Cc1ccc2[nH]c(C3CC3C(=O)N[C@@H]3CCN(c4ccc(C(F)(F)F)nc4)C3)nc2c1 (single isomer, unassigned) [Example 61B]	2200
O=C(Cc1ccc(C2CC2)cc1)N[C@@H]1CCN(c2cc(C(F)(F)F)c3nccn3c2)C1 [Example 20, (R)-2-(4-cyclopropylphenyl)-N-(1-(8-(trifluoromethyl)imidazo[1,2-a]pyridin-6-yl)pyrrolidin-3-yl)acetamide]	> 10000
O=C(N[C@@H]1CCN(c2ccc(F)c(C(F)(F)F)c2)C1)[C@H]1C[C@@H]1c1ncc2ccccc2n1 [Example 58, (1S,2S)—N—((R)-1-(4-fluoro-3-(trifluoromethyl)phenyl)pyrrolidin-3-yl)-2-(quinazolin-2-yl)cyclopropane-1-carboxyamide]	4400
CS(=O)(=O)c1cccc(N2CC[C@@H](NC(=O)[C@H]3C[C@@H]3c3nc4ccccc4[nH]3)C2)c1 [Example 59, (1S,2S)-2-(1H-benzo[d]imidazol-2-yl)-N—((R)-1-(3-(methylsulfonyl)phenyl)pyrrolidin-3-yl)cyclopropane-1-carboxyamide]	1800
N#Cc1cccc(N2CC[C@@H](NC(=O)[C@H]3C[C@@H]3c3nc4ccccc4[nH]3)C2)c1 [Example 60, (1S,2S)-2-(1H-benzo[d]imidazol-2-yl)-N—((R)-1-(3-cyanophenyl)pyrrolidin-3-yl)cyclopropane-1-carboxyamide]	470
O=C(N[C@@H]1CCN(c2ccc(C(F)(F)F)nn2)C1)[C@H]1C[C@@H]1c1nc2ccccc2[nH]1 [Example 69, (1S,2S)-2-(1H-benzo[d]imidazol-2-yl)-N—((R)-1-(6-(trifluoromethyl)pyridazin-3-yl)pyrrolidin-3-yl)cyclopropane-1-carboxyamide]	1200
O=C(Cc1ccc(C2CC2)cc1)N[C@@H]1CCN(c2ccc(OCC(F)(F)F)nc2)C1 [Example 125, (R)-2-(4-cyclopropylphenyl)-N-(1-(6-(2,2,2-trifluoroethoxy)pyridin-3-yl)pyrrolidin-3-yl)acetamide]	> 10000
COc1ncc(C(F)(F)F)cc1N1CC[C@@H](NC(=O)Cc2ccc(C3CC3)cc2)C1 [Example 128, (R)-2-(4-cyclopropylphenyl)-N-(1-(2-methoxy-5-(trifluoromethyl)pyridin-3-yl)pyrrolidin-3-yl)acetamide]	> 10000
O=C(Cc1ccc(C2CC2)cc1)N[C@@H]1CCCN(c2ccc(C(F)(F)F)nc2)C1 [Example 130, (R)-2-(4-cyclopropylphenyl)-N-(1-(6-(trifluoromethyl)pyridin-3-yl)piperidin-3-yl)acetamide]	> 10000
NC(C(=O)N[C@@H]1CCN(c2cncc(C(F)(F)F)c2)C1)c1ccc(C2CC2)cc1 (stereo partly drawn) [Example 137B, 2-amino-2-(4-cyclopropylphenyl)-N((R)-1-(5-(trifluoromethyl)pyridin-3-yl)pyrrolidin-3-yl)acetamide]	820
O=C(Cc1ccc(C2CC2)cc1)NC1CN(c2ccc(C(F)(F)F)cc2)C1 [Example 169, 2-(4-Cyclopropylphenyl)-N-(1-(4-(trifluoromethyl)phenyl)azetidin-3-yl)acetamide]	> 10000

Next, values leading:

IC50 [nM]	SMILES
11	O=C(N[C@@H]1CCN(c2cncc(C(F)(F)F)c2)C1)[C@H]1C[C@@H]1c1nc2cc(F)c(F)cc2o1 [Example 45]
470	O=C(N[C@H]1CCN(c2ccc(C(F)(F)F)nc2)C1)[C@H]1C[C@@H]1c1nc2ccccc2[nH]1 [Example 55, (1S,25)-2-(1H-benzo[d]imidazol-2-yl)-N—((S)-1-(6-(trifluoromethyl)pyridin-3-yl)pyrrolidin-3-yl)cyclopropane-1-carboxyamide]
290	O=C(N[C@@H]1CCN(c2ncc(C(F)(F)F)cn2)C1)[C@H]1C[C@@H]1c1nc2ccccc2[nH]1 [Example 56, (1S,2S)-2-(1H-benzo[d]imidazol-2-yl)-N—((R)-1-(5-(trifluoromethyl)pyrimidin-2-yl)pyrrolidin-3-yl)cyclopropane-1-carboxyamide]
20	O=C(N[C@@H]1CCN(c2ccc(F)c(C(F)(F)F)c2)C1)[C@H]1C[C@@H]1c1nc2ccccc2[nH]1 [Example 57, (1S,2S)-2-(1H-benzo[d]imidazol-2-yl)-N—((R)-1-(4-fluoro-3-(trifluoromethyl)phenyl)pyrrolidin-3-yl)cyclopropane-1-carboxyamide]
410	O=C(N[C@@H]1CCN(c2ccnc(C(F)(F)F)c2)C1)[C@H]1C[C@@H]1c1nc2ccccc2[nH]1 [Example 62, (1S,2S)-2-(1H-benzo[d]imidazol-2-yl)-N—((R)-1-(2-(trifluoromethyl)pyridin-4-yl)pyrrolidin-3-yl)cyclopropane-1-carboxyamide]
29	COc1ncc(N2CC[C@@H](NC(=O)[C@H]3C[C@@H]3c3nc4ccccc4[nH]3)C2)cc1C(F)(F)F [Example 67, (1S,2S)-2-(1H-benzo[d]imidazol-2-yl)-N—((R)-1-(6-methoxy-5-(trifluoromethyl)pyridin-3-yl)pyrrolidin-3-yl) cyclopropane-1-carboxyamide]
190	O=C(N[C@@H]1CCCN(c2cncc(C(F)(F)F)c2)C1)[C@H]1C[C@@H]1c1nc2ccccc2[nH]1 [Example 186, (1S,23)-2-(1H-benzo[d]imidazol-2-yl)-N—((R)-1-(5-(trifluoromethyl)pyridin-3-yl)piperidin-3-yl)cyclopropane-1-carboxyamide]

Each compound was assayed on SD rats (assay: Rat formalin test). Details: po, 30 mg/kg orally once, pain behavior time from 15 to 30 minutes after formalin administration vs vehicle group, read-out: Inhibition ratio (pain behavior inhibition ratio).
Assay type: in vivo
Description: 30 mg/kg of a vehicle or a test substance was orally administrated to SD rats once, and according to the method described in McNamara C. R., Mandel-Brehm J., Bautista D. M., Siemens J., Deranian K. L., Zhao M., Hayward N. J., Chong J. A., Julius D., Moran M. M., Fanger C. M.: TRPA1 mediates formalin-induced pain. Proc. Natl. Acad. Sci. U.S.A. 104, 2007, 13525-13530, 50 μL of a 2.0% formalin solution as a pain-inducing substance was subcutaneously administered under the skin of the plantar plate of the right hind limb of each rat.
Regarding the evaluation, the pain behavior inhibition ratio was determined from the pain behavior time of each test substance-administered group with respect to the pain behavior time of the vehicle-administered group for 15 minutes measured from 15 minutes to 30 minutes after the administration.

SMILES	inhibition in vivo at 30 mg/kg [%]
O=C(N[C@@H]1CCN(c2ccc(F)c(C(F)(F)F)c2)C1)[C@H]1C[C@@H]1c1nc2ccccc2[nH]1 [Example 57, (1S,2S)-2-(1H-benzo[d]imidazol-2-yl)-N—((R)-1-(4-fluoro-3-(trifluoromethyl)phenyl)pyrrolidin-3-yl)cyclopropane-1-carboxyamide]	< 10
Cn1ncc2cc(CC(=O)N[C@@H]3CCN(c4ccc(C(F)(F)F)nc4)C3)ccc21 [Example 144, (R)-2-(1-methyl-1H-indazol-5-yl)-N-(1-(6-(trifluoromethyl)pyridin-3-yl)pyrrolidin-3-yl)acetamide]	≥ 20

Each compound was assayed on mouse PSNL model (assay: Mechanical allodynia in mouse partial sciatic nerve ligation (PSNL) model). Details: 30 mg/kg orally administered, compared with the vehicle group.
Assay type: in vivo
Text: The production of a mouse PSNL model was achieved according to the method of Seltzer et al. A mouse was subjected to inhalation anesthesia with isoflurane. The femoral region of the mouse was shaved and disinfected with isodine. The skin on a thighbone of the mouse was incised, the fascia directly under the skin was cut, and the muscle heads of the musculus biceps femoris were split. The sciatic nerve directly under the fascia was checked, and then the sciatic nerve was detached so as not to damage the nerve. The needle of a needle with 8-0 silk thread was passed through the sciatic nerve to penetrate therethrough, and the sciatic nerve was ligated for about ½ to ⅓ of the whole nerve. The skin was sutured, and the mouse was raised for about 7 days. […]
The measurement of the pain threshold was carried out after transferring the mice into a cage for measurement and waiting for the exploratory behavior to disappear. Regarding the pain threshold (paw withdrawal filament ((g)), the plantar plates of the mice were stimulated with von Frey filaments (Sttoelting Co.: TOUCH-TEST SENSORY EVLUATOR) having different stimulus intensities, and the presence or absence of an escape response was observed. The 50% threshold was calculated by an up-down method with reference to the method of Chaplan et al. (Quantitative assessment of tactile allodynia in the rat paw. J neurosci Methods, 53, 1994, 55-63). […]

SMILES	mechanical allodynia (pain threshold, von Frey filament test)
Cn1ncc2cc(CC(=O)N[C@@H]3CCN(c4ccc(C(F)(F)F)nc4)C3)ccc21 [Example 144, (R)-2-(1-methyl-1H-indazol-5-yl)-N-(1-(6-(trifluoromethyl)pyridin-3-yl)pyrrolidin-3-yl)acetamide]	inhibited mechanical allodynia statistically significantly; also recorded: suppressed statistically significantly

— US20220363667A1 (Nippon Chemiphar Co., Ltd., priority 2018, published 2022)
